The structures appear in SMILES notation. Like-named read-outs stand apart in the source and are kept apart here.

From US11986532B2 (Arvinas Operations, Inc., priority 2021, dated 2024) come the findings set out here.

This assay addresses T1, BCL6 (Homo sapiens, UniProt P41182).
T1 construct: endogenous in cells; host or cells: T47D breast cancer epithelial cells
Nature of the assay: Immunofluorescence protocol for high content imaging of BCL6 (degradation) in T47D cells, 3 days compound treatment. The note with it: for Dmax: read-out: Mean Dmax (%)** category; for DC50: read-out: Mean DC50 (nM)* category. Format: cell-based. The method in brief:
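Remaining BCL6 in breast cancer T47D cells was measured by high-content immunofluorescence imaging after 3 days of treatment with serially diluted compound (top 0.1 or 1 μM). Nuclei were stained with Hoechst and cells with CellMask.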

[1] abbreviates: T47D cells, 3 days compound treatment.

As a reminder, the Dmax is the largest share of the target that was removed. A word on the DC50: it is the concentration at which degradation of the target reaches its halfway point. For the molecule `CNC(=O)COc1cc2cc(Nc3nc(N4CCC(O[C@H]5C[C@H](N6CCC(O)(c7ccc8c(c7)C(=O)N(C7CCC(=O)NC7=O)C8=O)CC6)C5)CC4)ncc3Cl)ccc2n(C(C)C)c1=O` (stereo partly shown) [Compound 275, 2-({6-[(5-chloro-2-{4-[(1r,3r)-3-{4-[2-(2,6-dioxopiperidin-3-yl)-1,3-dioxoisoindol-5-yl]-4-hydroxypiperidin-1-yl}cyclobutoxy]piperidin-1-yl}pyrimidin-4-yl)amino]-1-isopropyl-2-oxoquinolin-3-yl}oxy)-N-methylacetamide], the DC50 is under 10 nM. For the same molecule, under “T47D”, the Dmax is at least 70%.
On to `CNC(=O)COc1cc2cc(Nc3nc(N4CCC(O[C@H]5C[C@H](N6CCC(c7cc(F)c8c(c7F)CN([C@H]7CCC(=O)NC7=O)C8=O)CC6)C5)CC4)ncc3Cl)ccc2n(C(C)C)c1=O` [Compound 188, 2-({6-[(5-chloro-2-{4-[(1r,3r)-3-(4-{2-[(3S)-2,6-dioxopiperidin-3-yl]-4,7-difluoro-1-oxo-2,3-dihydro-1H-isoindol-5-yl}piperidin-1-yl)cyclobutoxy]piperidin-1-yl}pyrimidin-4-yl)amino]-2-oxo-1-(propan-2-yl)-1,2-dihydroquinolin-3-yl}oxy)-N-methylacetamide], for which, under setting [1], the DC50 was under 10 nM and the Dmax is at least 70%.
Turning to `CNC(=O)COc1cc2cc(Nc3nc(N4CCC(C(C)(C)N5CCC6(CC5)CN(c5c(OC)ccc7c5CN(C5CCC(=O)NC5=O)C7=O)C6)CC4)ncc3Cl)ccc2n(C(C)C)c1=O` (stereo not shown) [Compound 327, 2-{[6-({5-chloro-2-[4-(2-{2-[2-(2,6-dioxopiperidin-3-yl)-5-methoxy-1-oxo-2,3-dihydro-1H-isoindol-4-yl]-2,7-diazaspiro[3.5]nonan-7-yl}propan-2-yl)piperidin-1-yl]pyrimidin-4-yl}amino)-2-oxo-1-(propan-2-yl)-1,2-dihydroquinolin-3-yl]oxy}-N-methylacetamide], the DC50 is under 10 nM. For the same molecule, the Dmax (T47D) was at least 70%.
As for `CNC(=O)COc1cc2cc(Nc3nc(N4CCN(CC5CCC6(CCN(c7ccc8c(c7)CN(C7CCC(=O)NC7=O)C8=O)C6)C5)CC4)ncc3Cl)ccc2n(C(C)C)c1=O` (stereo not shown) [Compound 75, 2-{[6-({5-chloro-2-[4-({2-[2-(2,6-dioxopiperidin-3-yl)-1-oxo-2,3-dihydro-1H-isoindol-5-yl]-2-azaspiro[4.4]nonan-7-yl}methyl)piperazin-1-yl]pyrimidin-4-yl}amino)-2-oxo-1-(propan-2-yl)-1,2-dihydroquinolin-3-yl]oxy}-N-methylacetamide], under setting [1], the DC50 was under 10 nM and the Dmax is 50 to 70%.
Taken in the same sequence, the figures for `CNC(=O)COc1cc2cc(Nc3nc(N4CCN(CC5CCN(c6c(F)ccc7c6C(=O)N(C6CCC(=O)NC6=O)C7=O)CC5)CC4)ncc3Cl)ccc2n(C)c1=O` (stereo not shown) [Compound 35, 2-{[6-({5-chloro-2-[4-({1-[2-(2,6-dioxopiperidin-3-yl)-5-fluoro-1,3-dioxo-2,3-dihydro-1H-isoindol-4-yl]piperidin-4-yl}methyl)piperazin-1-yl]pyrimidin-4-yl}amino)-1-methyl-2-oxo-1,2-dihydroquinolin-3-yl]oxy}-N-methylacetamide] were under 10 nM and 50 to 70%.
For the molecule `CNC(=O)COc1cc2cc(Nc3nc(N4CCC5(CCN(CC6(F)CCN(c7cccc8c7CN(C7CCC(=O)NC7=O)C8=O)CC6)CC5)CC4)ncc3Cl)ccc2n(C(C)C)c1=O` (stereo not shown) [Compound 95, 2-{[6-({5-chloro-2-[9-({1-[2-(2,6-dioxopiperidin-3-yl)-1-oxo-2,3-dihydro-1H-isoindol-4-yl]-4-fluoropiperidin-4-yl}methyl)-3,9-diazaspiro [5.5]undecan-3-yl]pyrimidin-4-yl}amino)-2-oxo-1-(propan-2-yl)-1,2-dihydroquinolin-3-yl]oxy}-N-methylacetamide], under setting [1], the DC50 was under 10 nM and the Dmax lay within 50 to 70%.
On the same counts, the results for `CNC(=O)COc1cc2cc(Nc3nc(N4CCN(CC5CCN(c6cc(F)c7c(c6)CN(C6CCC(=O)NC6=O)C7=O)CC5)CC4)ncc3Cl)ccc2n(C(C)C)c1=O` (stereo not shown) [Compound 18, 2-{[6-({5-chloro-2-[4-({1-[2-(2,6-dioxopiperidin-3-yl)-7-fluoro-1-oxo-2,3-dihydro-1H-isoindol-5-yl]piperidin-4-yl}methyl)piperazin-1-yl]pyrimidin-4-yl}amino)-2-oxo-1-(propan-2-yl)-1,2-dihydroquinolin-3-yl]oxy}-N-methylacetamide] are under 10 nM and 50 to 70%.
Consider `CNC(=O)COc1cc2c(F)c(Nc3nc(N4CCC(O[C@H]5C[C@H](N6CCN(c7ccc8c(c7C)C(=O)N(C7CCC(=O)NC7=O)C8=O)CC6)C5)CC4)ncc3Cl)ccc2n(C(C)C)c1=O` (stereo partly shown) [Compound 195], for which, under setting [1], the DC50 is under 10 nM and the maximal degradation (Dmax) was at least 70%.
For `CNC(=O)COc1cc2cc(Nc3nc(N4CCOC5(CN(CC6CCN(c7cccc8c7C(=O)N(C7CCC(=O)NC7=O)C8=O)CC6)C5)C4)ncc3Cl)ccc2n(C(C)C)c1=O` (stereo not shown) [Compound 143, 2-{[6-({5-chloro-2-[2-({1-[2-(2,6-dioxopiperidin-3-yl)-1,3-dioxo-2,3-dihydro-1H-isoindol-4-yl]piperidin-4-yl}methyl)-5-oxa-2,8-diazaspiro[3.5]nonan-8-yl]pyrimidin-4-yl}amino)-2-oxo-1-(propan-2-yl)-1,2-dihydroquinolin-3-yl]oxy}-N-methylacetamide], the DC50 under setting [1] was at least 100 nM.
Consider `CNC(=O)COc1cc2cc(Nc3nc(N4CCC(O[C@H]5C[C@H](N6CC[C@H](c7ccc8c(c7)C(=O)N(C7CCC(=O)NC7=O)C8=O)[C@H](F)C6)C5)CC4)ncc3Cl)ccc2n(C(C)C)c1=O` (mixture of isomers) [Compound 118], for which, under setting [1], the DC50 was in the range of 10 to 50 nM and the Dmax is 50 to 70%.
Taken in the same sequence, the figures for `CNC(=O)COc1cc2cc(Nc3nc(N4CCC(CN5CC6(CCN(c7cccc8c7C(=O)N(C7CCC(=O)NC7=O)C8=O)CC6(F)F)C5)CC4)ncc3Cl)ccc2n(C(C)C)c1=O` (stereo not shown) [Compound 124, 2-{[6-({5-chloro-2-[4-({7-[2-(2,6-dioxopiperidin-3-yl)-1,3-dioxo-2,3-dihydro-1H-isoindol-4-yl]-5,5-difluoro-2,7-diazaspiro[3.5]nonan-2-yl}methyl)piperidin-1-yl]pyrimidin-4-yl}amino)-2-oxo-1-(propan-2-yl)-1,2-dihydroquinolin-3-yl]oxy}-N-methylacetamide] were under 10 nM and 50 to 70%.
On to `CNC(=O)COc1cc2c(F)c(Nc3nc(N4CCC(F)(CN5CCC6(CC5)CN(c5ccc7c(c5)CN(C5CCC(=O)NC5=O)C7=O)C6)CC4)ncc3Cl)ccc2n(C(C)C)c1=O` (stereo not shown) [Compound 389, 2-{[6-({5-chloro-2-[4-({2-[2-(2,6-dioxopiperidin-3-yl)-1-oxo-2,3-dihydro-1H-isoindol-5-yl]-2,7-diazaspiro[3.5]nonan-7-yl}methyl)-4-fluoropiperidin-1-yl]pyrimidin-4-yl}amino)-5-fluoro-2-oxo-1-(propan-2-yl)-1,2-dihydroquinolin-3-yl]oxy}-N-methylacetamide], for which the 50% degradation concentration (DC50) was under 10 nM. For the same molecule, where the note is “T47D”, the Dmax was at least 70%.
Taken in the same sequence, the figures for `CNC(=O)COc1cc2cc(Nc3cc(N4CCC(O[C@H]5C[C@H](N6CCC(c7ccc8c(c7)C(=O)N(C7CCC(=O)NC7=O)C8=O)CC6)C5)CC4)ncc3Cl)ccc2n(C(C)C)c1=O` (stereo partly shown) [Compound 243, 2-({6-[(5-chloro-2-{4-[(1r,3r)-3-{4-[2-(2,6-dioxopiperidin-3-yl)-1,3-dioxo-2,3-dihydro-1H-isoindol-5-yl]piperidin-1-yl}cyclobutoxy]piperidin-1-yl}pyridin-4-yl)amino]-2-oxo-1-(propan-2-yl)-1,2-dihydroquinolin-3-yl}oxy)-N-methylacetamide] were 10 to 50 nM and under 50%.
Taken in the same sequence, the figures for `CNC(=O)COc1cc2c(F)c(Nc3nc(N4CCC(O[C@H]5C[C@H](N6CCC(c7ccc8c(c7F)CN([C@@H]7CCC(=O)NC7=O)C8=O)CC6)C5)CC4)ncc3Cl)ccc2n(C(C)C)c1=O` [Compound 381, 2-({6-[(5-chloro-2-{4-[(1r,3r)-3-(4-{2-[(3R)-2,6-dioxopiperidin-3-yl]-4-fluoro-1-oxo-2,3-dihydro-1H-isoindol-5-yl}piperidin-1-yl)cyclobutoxy]piperidin-1-yl}pyrimidin-4-yl)amino]-5-fluoro-2-oxo-1-(propan-2-yl)-1,2-dihydroquinolin-3-yl}oxy)-N-methylacetamide] were under 10 nM and at least 70%.
In the case of `CNC(=O)COc1cc2cc(Nc3nc(N4CCN(CC5CCN(c6cc7c(cc6OC)C(=O)N(C6CCC(=O)NC6=O)C7)CC5)CC4)ncc3Cl)ccc2n(C(C)C)c1=O` (stereo not shown) [Compound 21, 2-{[6-({5-chloro-2-[4-({1-[2-(2,6-dioxopiperidin-3-yl)-6-methoxy-1-oxo-2,3-dihydro-1H-isoindol-5-yl]piperidin-4-yl}methyl)piperazin-1-yl]pyrimidin-4-yl}amino)-2-oxo-1-(propan-2-yl)-1,2-dihydroquinolin-3-yl]oxy}-N-methylacetamide], under setting [1], the DC50 was under 10 nM and the Dmax is under 50%.
Take `CNC(=O)COc1cc2cc(Nc3nc(N4CCC(OC5CN([C@H]6CC[C@@H](c7ccc8c(c7Cl)CN(C7CCC(=O)NC7=O)C8=O)CC6)C5)CC4)ncc3Cl)ccc2n(C(C)C)c1=O` (stereo partly shown) [Compound 186, 2-{[6-({5-chloro-2-[4-({1-[(1s,4s)-4-[4-chloro-2-(2,6-dioxopiperidin-3-yl)-1-oxo-2,3-dihydro-1H-isoindol-5-yl]cyclohexyl]azetidin-3-yl}oxy)piperidin-1-yl]pyrimidin-4-yl}amino)-2-oxo-1-(propan-2-yl)-1,2-dihydroquinolin-3-yl]oxy}-N-methylacetamide]: under setting [1], the DC50 was under 10 nM and the Dmax is under 50%.
